Converted amounts (≈) assume the structure as drawn. The source made the active and inactive calls. No cut-off for these calls is given here.
Key:
Acinetobacter baumannii [1] = assay: Synergistic antibacterial activity against Acinetobacter baumannii Ab 1613 assessed as fractional inhibitory concentration index at 4 microg/ml incubated for 18 to 20 hrs by chequerboard assay; assay type: functional; settings: dose 4 µg/ml; time 18-20 hrs
Staphylococcus aureus [2] = assay: Antibacterial activity against Staphylococcus aureus S1-1-65 assessed as inhibition of bacterial growth incubated for 18 hrs by broth microdilution method; assay type: functional
[3] = test system: Mycolicibacterium smegmatis; assay: Antibacterial activity against Mycobacterium smegmatis MC 2155 assessed as inhibition of bacterial growth incubated for 18 hrs by broth microdilution method; assay type: functional
Enterococcus faecalis [4] = assay: Antibacterial activity against Enterococcus faecalis ATCC 29212 assessed as inhibition of bacterial growth incubated for 18 hrs by broth microdilution method; assay type: functional
Klebsiella pneumoniae [5] = assay: Antibacterial activity against Klebsiella pneumoniae KPN 1617 incubated for 18 hrs by broth microdilution method; assay type: functional
Staphylococcus aureus [6] = assay: Antimicrobial activity against methicillin/ofloxacin-resistant Staphylococcus aureus ATCC 43300 assessed as minimum inhibitory concentration incubated for 18 hrs by broth microdilution method; assay type: functional
Cell membrane [7] = assay: Disruption of cell membrane integrity in Acinetobacter baumannii ATCC 19606 assessed as outer membrane expansion at 4 microg/ml incubated for 1 hrs by TEM analysis; assay type: subcellular; settings: dose 4.0 µg/ml
Klebsiella pneumoniae [8] = assay: Synergistic antibacterial activity against Klebsiella pneumoniae KPN 943 assessed as polymyxin-E MIC at 4 microg/ml incubated for 18 hrs by broth microdilution method; assay type: functional; settings: dose 4 µg/ml
Staphylococcus aureus [9] = assay: Antibacterial activity against methicillin-resistant Staphylococcus aureus ATCC 43300 assessed as inhibition of bacterial growth at 2 microg/ml measured after 24 hrs by time-kill assay; assay type: functional; design: scale not given: the % may be the effect or the level left; settings: dose 2 µg/ml
Pseudomonas aeruginosa [10] = assay: Synergistic antibacterial activity against Pseudomonas aeruginosa PAE 1051 assessed as fractional inhibitory concentration index at 4 microg/ml incubated for 18 to 20 hrs by chequerboard assay; assay type: functional; settings: dose 4 µg/ml; time 18-20 hrs
Pseudomonas aeruginosa [11] = assay: Antibacterial activity against Pseudomonas aeruginosa ATCC 13883 incubated for 18 hrs by broth microdilution method; assay type: functional
Bacillus subtilis [12] = assay: Antibacterial activity against Bacillus subtilis CMCC(B) 63501 assessed as inhibition of bacterial growth incubated for 18 hrs by broth microdilution method; assay type: functional
Acinetobacter baumannii [13] = assay: Synergistic antibacterial activity against Acinetobacter baumannii Ab 1611 assessed as fractional inhibitory concentration index at 4 microg/ml incubated for 18 to 20 hrs by chequerboard assay; assay type: functional; settings: dose 4 µg/ml; time 18-20 hrs
Cell membrane [14] = assay: Disruption of cell membrane integrity in Acinetobacter baumannii ATCC 19606 assessed as cellular vacuolization at 4 microg/ml incubated for 1 hrs in presence of polymyxin-E by TEM analysis; assay type: subcellular; settings: dose 4.0 µg/ml
Acinetobacter baumannii [15] = assay: Synergistic antibacterial activity against Acinetobacter baumannii Ab 1611 assessed as polymyxin-E MIC at 4 microg/ml incubated for 18 hrs by broth microdilution method; assay type: functional; settings: dose 4 µg/ml
Staphylococcus aureus [16] = assay: Antibacterial activity against Staphylococcus aureus LAC assessed as inhibition of bacterial growth incubated for 18 hrs by broth microdilution method; assay type: functional
Staphylococcus aureus [17] = assay: Antibacterial activity against methicillin-resistant Staphylococcus aureus ATCC 43300 assessed as inhibition of bacterial growth at 0.5 to 1 microg/ml measured between 8 to 24 hrs by time-kill assay; assay type: functional, organism-based; settings: dose 0.5-1 µg/ml, time 8-24 hrs
Acinetobacter baumannii [18] = assay: Antibacterial activity against Acinetobacter baumannii Ab 1611 incubated for 18 hrs by broth microdilution method; assay type: functional
Cell membrane [19] = assay: Disruption of cell membrane integrity in Acinetobacter baumannii ATCC 19606 assessed as displacement of outer membrane at 4 microg/ml incubated for 1 hrs by TEM analysis; assay type: subcellular; settings: dose 4.0 µg/ml
[20] = test system: Mycolicibacterium smegmatis; assay: Antibacterial activity against Mycobacterium smegmatis ARC 700044 assessed as inhibition of bacterial growth incubated for 18 hrs by broth microdilution method; assay type: functional
Cell membrane [21] = assay: Induction of outer membrane disruption in Acinetobacter baumannii ATCC 19606 assessed as decrease in fluorescence intensity by NPN dye based fluorescence analysis; assay type: subcellular
Cell membrane [22] = assay: Disruption of cell membrane integrity in Acinetobacter baumannii ATCC 19606 assessed as cytoplasmic content leakage at 4 microg/ml incubated for 1 hrs in presence of polymyxin-E by TEM analysis; assay type: subcellular; settings: dose 4.0 µg/ml
Klebsiella pneumoniae [23] = assay: Synergistic antibacterial activity against Klebsiella pneumoniae SIPI-KPN-1712 assessed as polymyxin-E MIC at 4 microg/ml incubated for 18 hrs by broth microdilution method; assay type: functional; settings: dose 4 µg/ml
Acinetobacter baumannii [24] = assay: Synergistic antimicrobial activity against Acinetobacter baumannii ATCC 19606 assessed as fractional inhibitory concentration index in presence of polymyxin E incubated for 18 to 20 hrs by chequerboard assay; assay type: functional; settings: time 18-20 hrs
Staphylococcus aureus [25] = assay: Antibacterial activity against Staphylococcus aureus S1-1-38 assessed as inhibition of bacterial growth incubated for 18 hrs by broth microdilution method; assay type: functional
Cell membrane [26] = assay: Disruption of cell membrane integrity in Acinetobacter baumannii ATCC 19606 assessed as reduction in nucleoid boundaries at 4 microg/ml incubated for 1 hrs in presence of polymyxin-E by TEM analysis; assay type: subcellular; design: scale not given: the % may be the effect or the level left; settings: dose 4.0 µg/ml
Bacillus subtilis [27] = assay: Antibacterial activity against Bacillus subtilis ATCC 6633 assessed as inhibition of bacterial growth incubated for 18 hrs by broth microdilution method; assay type: functional
Pseudomonas aeruginosa [28] = assay: Synergistic antibacterial activity against Pseudomonas aeruginosa PAE 3887 assessed as polymyxin-E MIC at 4 microg/ml incubated for 18 hrs by broth microdilution method; assay type: functional; settings: dose 4 µg/ml
Acinetobacter baumannii [29] = assay: Antimicrobial activity against Acinetobacter baumannii ATCC 19606 incubated for 18 hrs by broth microdilution method; assay type: functional
Enterococcus faecalis [30] = assay: Antimicrobial activity against vancomycin-resistant Enterococcus faecalis ATCC 51299 assessed as minimum inhibitory concentration incubated for 18 hrs by broth microdilution method; assay type: functional
Bacillus subtilis [31] = assay: Antimicrobial activity against Bacillus subtilis ATCC 20678 incubated for 18 hrs by broth microdilution method; assay type: functional
Pseudomonas aeruginosa [32] = assay: Synergistic antibacterial activity against Pseudomonas aeruginosa PAE 3887 assessed as fractional inhibitory concentration index at 4 microg/ml incubated for 18 to 20 hrs by chequerboard assay; assay type: functional; settings: dose 4 µg/ml; time 18-20 hrs
[33] = test system: Mycolicibacterium smegmatis; assay: Antibacterial activity against Mycobacterium smegmatis ATCC 704 assessed as inhibition of bacterial growth incubated for 18 hrs by broth microdilution method; assay type: functional
Staphylococcus aureus [34] = assay: Antibacterial activity against Staphylococcus aureus S1-1-1 assessed as inhibition of bacterial growth incubated for 18 hrs by broth microdilution method; assay type: functional
Acinetobacter baumannii [35] = assay: Synergistic antibacterial activity against Acinetobacter baumannii ATCC 19606 assessed as fractional inhibitory concentration index at 4 microg/ml incubated for 18 to 20 hrs by chequerboard assay; assay type: functional; settings: dose 4 µg/ml; time 18-20 hrs
Staphylococcus aureus [36] = assay: Antibacterial activity against methicillin-resistant Staphylococcus aureus ATCC 43300 assessed as inhibition of bacterial growth at 0.5 to 1 microg/ml incubated for 0 to 8 hrs by time-kill assay; assay type: functional, organism-based; settings: dose 0.5-1 µg/ml, time 0-8 hrs
Klebsiella pneumoniae [37] = assay: Synergistic antibacterial activity against Klebsiella pneumoniae KPN 1617 assessed as fractional inhibitory concentration index at 4 microg/ml incubated for 18 to 20 hrs by chequerboard assay; assay type: functional; settings: dose 4 µg/ml; time 18-20 hrs
Klebsiella pneumoniae [38] = assay: Synergistic antibacterial activity against Klebsiella pneumoniae KPN 1617 assessed as fold change in polymyxin-E MIC incubated for 18 hrs by broth microdilution method relative to polymyxin-E alone; assay type: functional
Klebsiella pneumoniae [39] = assay: Synergistic antibacterial activity against Klebsiella pneumoniae KPN 1617 assessed as polymyxin-E MIC at 4 microg/ml incubated for 18 hrs by broth microdilution method; assay type: functional; settings: dose 4 µg/ml
Pseudomonas aeruginosa [40] = assay: Antibacterial activity against Pseudomonas aeruginosa PAE 1051 incubated for 18 hrs by broth microdilution method; assay type: functional

With `C/C(=N\Nc1ccccn1)c1csc(Nc2cc(F)cc(C(F)(F)F)c2)n1` the “fractional inhibitory concentration index (FICI)” value (Acinetobacter baumannii [1]) was 0.281, the MIC (Staphylococcus aureus [2]) was 4 µg/mL (≈ 10.1 µM) and the MIC [3] was 1 µg/mL (≈ 2.53 µM). It also gave an MIC (Enterococcus faecalis [4]) of 2 µg/mL (≈ 5.06 µM), an MIC (Klebsiella pneumoniae [5]) greater than 128 µg/mL and an MIC (Staphylococcus aureus [6]) of 1 µg/mL (≈ 2.53 µM). The Activity (Cell membrane [7]) was “Active”, the MIC (Klebsiella pneumoniae [8]) was 0.125 µg/mL and the Activity (Staphylococcus aureus [9]) was 100%. The “fractional inhibitory concentration index (FICI)” value (Pseudomonas aeruginosa [10]) was 0.281, the MIC (Pseudomonas aeruginosa [11]) was greater than 128 µg/mL and the MIC (Bacillus subtilis [12]) was 0.5 µg/mL (≈ 1.26 µM). The “fractional inhibitory concentration index (FICI)” value (Acinetobacter baumannii [13]) was 0.094, the Activity (Cell membrane [14]) was “Active” and the MIC (Acinetobacter baumannii [15]) was 0.063 µg/mL. The MIC (Staphylococcus aureus [16]) was 1 µg/mL (≈ 2.53 µM), the Activity (Staphylococcus aureus [17]) was “inactive” and the MIC (Acinetobacter baumannii [18]) was greater than 128 µg/mL. The Activity (Cell membrane [19]) was “Active”, the MIC [20] was 2 µg/mL (≈ 5.06 µM) and the Activity (Cell membrane [21]) was “Active”. For the same compound, the Activity (Cell membrane [22]) was “Active”, the MIC (Klebsiella pneumoniae [23]) was 2 µg/mL and the “fractional inhibitory concentration index (FICI)” value (Acinetobacter baumannii [24]) was 0.066. It also gave an MIC (Staphylococcus aureus [25]) of 0.5 µg/mL (≈ 1.26 µM), an Activity (Cell membrane [26]) of 100% and an MIC (Bacillus subtilis [27]) of 2 µg/mL (≈ 5.06 µM). The MIC (Pseudomonas aeruginosa [28]) was 0.125 µg/mL, the MIC (Acinetobacter baumannii [29]) was 128 µg/mL (≈ 324 µM) and the MIC (Enterococcus faecalis [30]) was 1 µg/mL (≈ 2.53 µM). The MIC (Bacillus subtilis [31]) was 1 µg/mL (≈ 2.53 µM), the “fractional inhibitory concentration index (FICI)” value (Pseudomonas aeruginosa [32]) was 0.094 and the MIC [33] was 1 µg/mL (≈ 2.53 µM). The MIC (Staphylococcus aureus [34]) was 1 µg/mL (≈ 2.53 µM), the “fractional inhibitory concentration index (FICI)” value (Acinetobacter baumannii [35]) was 0.094 and the Activity (Staphylococcus aureus [36]) was “Active”. The “fractional inhibitory concentration index (FICI)” value (Klebsiella pneumoniae [37]) was 0.094, the “fold change (FC)” value (Klebsiella pneumoniae [38]) was 16 and the MIC (Klebsiella pneumoniae [39]) was 0.5 µg/mL. It also gave an MIC (Pseudomonas aeruginosa [40]) greater than 128 µg/mL.
